Source: PubChem BioAssay AID248 (DTP/NCI, 2004)
Several values for one entry are separate records, joined by “and”; a condition that tells them apart may be missing. Identical values can stand only once. Toxic doses and inconclusive results are not listed. Rule as the data show it: active = T/C of 150% or more; inactive = T/C below 125%.

Tested on: L1210 leukemia ip in BDF1 mice, survival T/C
Assay: NCI In Vivo Anticancer Drug Screen. Data for tumor model L1210 Leukemia (intraperitoneal) in B6D2F1 (BDF1) mice
Details: endpoint: mean survival time, higher = longer survival
How it was run: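 Mice bearing the transplanted tumor received compound or vehicle. Survival of the treated group was divided by that of the vehicle-treated control group to give the ratio.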

[1] = dose: 75.0 mg/kg/injection, schedule: Q01DX001 (ip), vehicle: Klucel (hydroxypropylcellulose) (HPC)
[2] = dose: 150.0 mg/kg/injection, schedule: Q01DX001 (ip), vehicle: Klucel (hydroxypropylcellulose) (HPC)
[3] = dose: 300.0 mg/kg/injection, schedule: Q01DX001 (ip), vehicle: Klucel (hydroxypropylcellulose) (HPC)
[4] = dose: 100.0 mg/kg/injection, schedule: Q04DX003 (ip), vehicle: saline with Tween-80
[5] = dose: 200.0 mg/kg/injection, schedule: Q04DX003 (ip), vehicle: saline with Tween-80
[6] = dose: 400.0 mg/kg/injection, schedule: Q04DX003 (ip), vehicle: saline with Tween-80
[7] = dose: 100.0 mg/kg/injection, schedule: Q01DX009 (ip), vehicle: Klucel (hydroxypropylcellulose) (HPC)
[8] = dose: 200.0 mg/kg/injection, schedule: Q01DX009 (ip), vehicle: Klucel (hydroxypropylcellulose) (HPC)
[9] = dose: 400.0 mg/kg/injection, schedule: Q01DX009 (ip), vehicle: Klucel (hydroxypropylcellulose) (HPC)
[10] = dose: 100.0 mg/kg/injection, schedule: Q04DX003 (ip), vehicle: saline
[11] = dose: 200.0 mg/kg/injection, schedule: Q04DX003 (ip), vehicle: saline
[12] = dose: 400.0 mg/kg/injection, schedule: Q04DX003 (ip), vehicle: saline
[13] = dose: 50.0 mg/kg/injection, schedule: Q01DX009 (ip), vehicle: saline with Tween-80
[14] = dose: 100.0 mg/kg/injection, schedule: Q01DX009 (ip), vehicle: saline with Tween-80
[15] = dose: 200.0 mg/kg/injection, schedule: Q01DX009 (ip), vehicle: saline with Tween-80

Measured: T/C

COC(=O)c1nnn(CN(CN(CN(Cn2nnc(C(=O)OC)c2C(=O)OC)[N+](=O)[O-])[N+](=O)[O-])[N+](=O)[O-])c1C(=O)OC
inactive: [1] 108 % of control | [2] 100 % of control | [3] 110 % of control

O=N[C@@H]1CCC[C@H](Cl)C1
inactive: [4] 95 % of control | [5] 98 % of control | [6] 95 % of control

O=c1[nH]c2ccsc2c(=O)n1OS(=O)(=O)c1ccccc1
inactive: [7] 100 % of control | [8] 100 % of control | [9] 88 % of control

CC(=O)CCC(=O)CCC(C)=O
inactive: dose: 100.0 mg/kg/injection, schedule: Q04DX002 (ip), vehicle: saline 93 % of control | dose: 200.0 mg/kg/injection, schedule: Q04DX002 (ip), vehicle: saline 101 % of control | dose: 400.0 mg/kg/injection, schedule: Q04DX002 (ip), vehicle: saline 101 % of control

NC(CSCCc1ccccn1)C(=O)O (configuration not stated)
inactive: dose: 100.0 mg/kg/injection, schedule: Q01DX009 (ip), vehicle: saline 107 % of control | [10] 101 % of control | dose: 200.0 mg/kg/injection, schedule: Q01DX009 (ip), vehicle: saline 104 % of control | [11] 104 % of control | dose: 400.0 mg/kg/injection, schedule: Q01DX009 (ip), vehicle: saline 105 % of control | [12] 94 % of control

CC(=O)OC1C(=O)C(O)C(C)OC1O[C@@H]1C[C@@]2(C)[C@@H]3CC=C4[C@@H](C[C@H](O)C(=O)C4(C)C)[C@]3(C)C(=O)C[C@]2(C)[C@H]1[C@@](C)(O)C(=O)/C=C/C(C)(C)O (some centres not stated)
inactive: dose: 0.33 mg/kg/injection, schedule: Q01DX009 (ip), vehicle: saline 113 % of control | dose: 0.6 mg/kg/injection, schedule: Q01DX009 (ip), vehicle: saline 106 % of control | dose: 0.67 mg/kg/injection, schedule: Q01DX009 (ip), vehicle: saline 112 % of control | dose: 1.0 mg/kg/injection, schedule: Q01DX009 (ip), vehicle: saline 108 % of control | dose: 1.25 mg/kg/injection, schedule: Q01DX009 (ip), vehicle: saline 120 % of control | dose: 1.5 mg/kg/injection, schedule: Q01DX009 (ip), vehicle: saline 101 % of control | dose: 2.5 mg/kg/injection, schedule: Q01DX009 (ip), vehicle: saline 97 % of control

CCOC(=O)NCc1cccc2ccc(Cl)cc12
inactive: dose: 100.0 mg/kg/injection, schedule: Q01DX001 (ip), vehicle: Klucel (hydroxypropylcellulose) (HPC) 95 % of control | dose: 200.0 mg/kg/injection, schedule: Q01DX001 (ip), vehicle: Klucel (hydroxypropylcellulose) (HPC) 90 % of control | dose: 400.0 mg/kg/injection, schedule: Q01DX001 (ip), vehicle: Klucel (hydroxypropylcellulose) (HPC) 86 % of control

C=CCNC(=O)c1ccccc1
inactive: dose: 25.0 mg/kg/injection, schedule: Q04DX002 (ip), vehicle: saline with Tween-80 97 % of control | dose: 50.0 mg/kg/injection, schedule: Q04DX002 (ip), vehicle: saline with Tween-80 93 % of control | dose: 100.0 mg/kg/injection, schedule: Q04DX002 (ip), vehicle: saline with Tween-80 111 % of control and 91 % of control

O=S1(=O)C=C(Br)CC1
inactive: dose: 75.0 mg/kg/injection, schedule: Q01DX001 (ip), vehicle: saline with Tween-80 97 % of control | dose: 150.0 mg/kg/injection, schedule: Q01DX001 (ip), vehicle: saline with Tween-80 97 % of control | dose: 300.0 mg/kg/injection, schedule: Q01DX001 (ip), vehicle: saline with Tween-80 95 % of control

NC(N)=Nc1ccccc1
inactive: [13] 107 % of control | [14] 101 % of control | [10] 101 % of control | [15] 104 % of control | [11] 115 % of control

O=C(c1ccccc1)C1CC1c1ccccc1 (configuration not stated)
inactive: [1] 96 % of control | dose: 75.0 mg/kg/injection, schedule: Q04DX002 (ip), vehicle: saline with Tween-80 105 % of control | [10] 101 % of control | [2] 100 % of control | dose: 150.0 mg/kg/injection, schedule: Q04DX002 (ip), vehicle: saline with Tween-80 91 % of control | [11] 93 % of control | [3] 102 % of control | dose: 300.0 mg/kg/injection, schedule: Q04DX002 (ip), vehicle: saline with Tween-80 98 % of control | [12] 103 % of control

COCCNCCN1CCN(CCCN2c3ccccc3Sc3ccc(C(F)(F)F)cc32)CC1
inactive: dose: 6.25 mg/kg/injection, schedule: Q04DX003 (ip), vehicle: saline 110 % of control | dose: 12.5 mg/kg/injection, schedule: Q01DX009 (ip), vehicle: saline 107 % of control | dose: 12.5 mg/kg/injection, schedule: Q04DX003 (ip), vehicle: saline 96 % of control and 100 % of control | dose: 25.0 mg/kg/injection, schedule: Q01DX009 (ip), vehicle: saline 105 % of control | dose: 25.0 mg/kg/injection, schedule: Q04DX003 (ip), vehicle: saline 95 % of control and 105 % of control | dose: 50.0 mg/kg/injection, schedule: Q04DX003 (ip), vehicle: saline 102 % of control and 108 % of control

OCCCCCCCCCCO
inactive: dose: 100.0 mg/kg/injection, schedule: Q01DX009 (ip), vehicle: carboxymethylcellulose (CMC) 104 % of control | dose: 200.0 mg/kg/injection, schedule: Q01DX009 (ip), vehicle: carboxymethylcellulose (CMC) 106 % of control | dose: 400.0 mg/kg/injection, schedule: Q01DX009 (ip), vehicle: carboxymethylcellulose (CMC) 98 % of control

CCOC(=O)c1ccc(N=NN(C)C)cc1
inactive: dose: 30.0 mg/kg/injection, schedule: Q01DX Z (ip), vehicle: carboxymethylcellulose (CMC) 97 % of control and 102 % of control | dose: 60.0 mg/kg/injection, schedule: Q01DX Z (ip), vehicle: carboxymethylcellulose (CMC) 107 % of control | dose: 90.0 mg/kg/injection, schedule: Q01DX Z (ip), vehicle: carboxymethylcellulose (CMC) 110 % of control and 124 % of control

CC(C)CC(C)OB(OC(C)CC(C)C)OC(C)CC(C)C (configuration not stated)
inactive: dose: 50.0 mg/kg/injection, schedule: Q01DX001 (ip), vehicle: carboxymethylcellulose (CMC) 102 % of control | dose: 100.0 mg/kg/injection, schedule: Q01DX001 (ip), vehicle: carboxymethylcellulose (CMC) 111 % of control | dose: 200.0 mg/kg/injection, schedule: Q01DX001 (ip), vehicle: carboxymethylcellulose (CMC) 102 % of control | dose: 400.0 mg/kg/injection, schedule: Q01DX001 (ip), vehicle: carboxymethylcellulose (CMC) 96 % of control

CC(=O)c1ccc(Cc2ccc(C(C)=O)s2)s1
inactive: [13] 86 % of control | [14] 93 % of control | [15] 89 % of control

N#CC1CC2c3ccccc3C1c1ccccc12 (configuration not stated)
inactive: [4] 97 % of control | [5] 94 % of control | [6] 100 % of control

CC(=O)OC1Cc2ccccc21 (configuration not stated)
inactive: [14] 96 % of control | [4] 95 % of control | [15] 109 % of control | [5] 96 % of control | dose: 400.0 mg/kg/injection, schedule: Q01DX009 (ip), vehicle: saline with Tween-80 100 % of control | [6] 98 % of control

Cc1c(Cl)cccc1NC(=O)C(c1ccccc1)c1ccccc1
inactive: [7] 89 % of control | dose: 100.0 mg/kg/injection, schedule: Q04DX003 (ip), vehicle: Klucel (hydroxypropylcellulose) (HPC) 101 % of control | [8] 94 % of control | dose: 200.0 mg/kg/injection, schedule: Q04DX003 (ip), vehicle: Klucel (hydroxypropylcellulose) (HPC) 86 % of control | [9] 93 % of control | dose: 400.0 mg/kg/injection, schedule: Q04DX003 (ip), vehicle: Klucel (hydroxypropylcellulose) (HPC) 91 % of control
